Measured values as given in US20240101572A1, “DIHYDROOXADIAZINONE COMPOUND AND PHARMACEUTICAL USE THEREOF” (Japan Tobacco Inc., priority 2022, published 2024).

How the values were obtained:
full-length human PLD1 = full-length human PLD1 (Homo sapiens (Human), UniProt Q13393); assay: Evaluation of human PLD1 enzyme inhibitory activity (Amplex Red / choline oxidase fluorescence); type: biochemical; conditions: full-length human PLD1 enzyme; read-out: PLD1 IC50
Description: A method for measuring human PLD1 enzyme inhibitory activity using an enzyme in which a FLAG-tag is added to the N-terminus of full-length human PLD1 (1-1036 amino acids) is shown below.
(§1) DNA fragment in which a FLAG-tag sequence is added to the 5′-end of full-length human PLD1 was amplified by PCR method, using commercially available human PLD1 gene (Promega KK) as a template. The amplified DNA fragment was fused with vector pVL1393 for baculovirus production (Pharmingen) digested with BamHI and EcoRI, using In-Fusion HD Cloning Kit (Takara Bio). The full-length human PLD1-expression plasmid DNA for baculovirus was isolated from Escherichia coli DH5a (TOYOBO) transformed with the obtained In-Fusion reaction product. Next, DNA fragment in which a FLAG-tag sequence is added to the 5′-end of full-length human PLD1 was amplified by PCR method, using the full-length human PLD1-expression plasmid DNA for baculovirus as a template. The amplified DNA fragment was fused with a DNA fragment in which a linker sequence is introduced into pcDNA3.4-TOPO (Life Technologies), using In-Fusion HD Cloning Kit (Takara Bio). The full-length human PLD1-expression plasmid DNA for animal cells was isolated from Escherichia coli DH5a transformed with the obtained In-Fusion reaction product. The base sequence of the full-length human PLD1 cloned into vector was determined by a Dye Terminator method using BigDye Terminator v3.1 Cycle Sequencing Kit (Applied Biosystems). The determined sequence was a sequence in which the FLAG-tag sequence was inserted at the 5′-end of the full-length human PLD1 (GenBank Accession Number: NM_001130081).
(§2) Expi293F cells (Life Technologies) were cultured with shaking using Expi293 Expression Medium (Life Technologies) as a medium at 37° C. in the presence of 8% CO2. The gene introduction reagent PEI was prepared by dissolving Polyethylenimine Max (nominally MW 40,000) (Polysciences) in MilliQ water, adjusting the pH of the solution to 7.0 with NaOH to obtain a 1 mg/mL solution, and then filtering the solution through 0.22 μm filter. The full-length human PLD1-expression plasmid DNA for animal cells was transfected into Expi293F cells using PEI, and after 48 hours of shaking culture, the cells were collected and stored at −80° C.
(§3) To the full-length human PLD1-expressed cells was added a Homogenate buffer (20 mmol/L Na-phosphate pH 7.5, 250 mmol/L NaCl, 1 mmol/L MgCl2, 1% β-OG, 0.05 mmol/L DTT+complete EDTA-free (Roche Diagnostics K.K.)), and the cells were lysed by Microfluidizer Processor M-110EH (Mizuho Kogyo Co., Ltd.). The lysate was centrifuged at 10,100×g at 4° C. for 15 minutes, and the supernatant was collected and filtered through 0.45 μm filter. To the centrifuged supernatant was added ANTI-FLAG M2 Affinity Gel (SIGMA-Aldrich) resin equilibrated with a Homogenate buffer, and the mixed solution was stirred at 4° C. for 1 hr or more. The mixed solution was loaded onto Poly-Prep column, and the resin was washed with a Wash buffer (20 mmol/L Na-phosphate pH 7.5, 150 mmol/L NaCl, 1 mmol/L MgCl2, 0.02% Triton, 0.05 mmol/L DTT). A Wash buffer containing 400 μg/mL DYKDDDDK Peptide (Scrum Inc.) was added to the column to elute the protein bound to the resin. The eluted fractions were subjected to SDS-PAGE followed by CBB staining to identify the fractions containing the full-length human PLD1. The eluted fractions of the full-length human PLD1 were collected and concentrated using Amicon Ultra-15 100k (Merck Millipore). The concentrated fractions were collected, flash-frozen in liquid nitrogen and stored at −80° C.
(§4) A DMSO or test substance solution (the DMSO final concentration: 5%) prepared by diluting DMSO or test substance with an Assay buffer (50 mmol/L HEPES pH 7.5, 80 mmol/L KCl, 3 mmol/L EGTA, 3.6 mmol/L MgCl2, 0.01% NP-40, 0.1% BSA), and the solution was added to a 384 well Assay Plate (Black, Polystyrene, Non-Treated, Cat No. 3573, Corning) by 5 μL/well. […]

full-length human PLD2 = full-length human PLD2 (Homo sapiens (Human), UniProt O14939); assay: Evaluation of human PLD2 enzyme inhibitory activity (Amplex Red / choline oxidase fluorescence); type: biochemical; conditions: full-length human PLD2 enzyme; read-out: PLD2 IC50
Sequence of full-length human PLD2 (O14939 whole entry, the tested form may be a part): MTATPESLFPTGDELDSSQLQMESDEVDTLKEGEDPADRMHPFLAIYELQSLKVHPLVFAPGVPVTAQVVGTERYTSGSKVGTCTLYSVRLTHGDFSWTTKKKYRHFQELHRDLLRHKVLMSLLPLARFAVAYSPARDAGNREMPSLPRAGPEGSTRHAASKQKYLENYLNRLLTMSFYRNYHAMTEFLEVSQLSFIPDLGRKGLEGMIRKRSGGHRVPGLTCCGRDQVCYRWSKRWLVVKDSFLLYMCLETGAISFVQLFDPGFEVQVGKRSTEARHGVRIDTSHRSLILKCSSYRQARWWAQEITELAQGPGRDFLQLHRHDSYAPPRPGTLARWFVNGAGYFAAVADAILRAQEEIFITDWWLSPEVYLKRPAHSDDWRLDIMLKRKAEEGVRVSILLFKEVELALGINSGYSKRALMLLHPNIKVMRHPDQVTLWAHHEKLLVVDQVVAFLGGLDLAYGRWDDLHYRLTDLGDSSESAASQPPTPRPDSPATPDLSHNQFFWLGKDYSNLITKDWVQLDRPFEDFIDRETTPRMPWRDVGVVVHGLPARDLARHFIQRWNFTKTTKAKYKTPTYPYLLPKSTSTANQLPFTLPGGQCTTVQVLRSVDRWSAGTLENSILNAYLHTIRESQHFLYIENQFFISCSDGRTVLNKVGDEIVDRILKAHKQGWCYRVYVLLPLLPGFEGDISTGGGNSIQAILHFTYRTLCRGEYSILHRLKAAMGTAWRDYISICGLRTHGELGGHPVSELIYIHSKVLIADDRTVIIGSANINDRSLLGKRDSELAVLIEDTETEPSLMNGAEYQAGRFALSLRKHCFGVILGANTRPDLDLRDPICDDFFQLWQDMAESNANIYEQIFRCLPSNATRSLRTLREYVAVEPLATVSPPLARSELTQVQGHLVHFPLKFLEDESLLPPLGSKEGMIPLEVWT
Description: A method for measuring human PLD2 enzyme inhibitory activity using an enzyme in which a FLAG-tag is added to the N-terminus of full-length human PLD2 (1-933 amino acids) is shown below.
as §1, with “PLD2” for “PLD1”, “PLD2-expression” for “PLD1-expression”, “NM 002663).” for “NM_001130081).”
as §2, with “PLD2-expression” for “PLD1-expression”
as §3, with “PLD2-expressed” for “PLD1-expressed”, “PLD2.” for “PLD1.”, “PLD2” for “PLD1”
as §4

Sequence of full-length human PLD1 (Q13393 other isoform, or with tags, fused parts or gaps): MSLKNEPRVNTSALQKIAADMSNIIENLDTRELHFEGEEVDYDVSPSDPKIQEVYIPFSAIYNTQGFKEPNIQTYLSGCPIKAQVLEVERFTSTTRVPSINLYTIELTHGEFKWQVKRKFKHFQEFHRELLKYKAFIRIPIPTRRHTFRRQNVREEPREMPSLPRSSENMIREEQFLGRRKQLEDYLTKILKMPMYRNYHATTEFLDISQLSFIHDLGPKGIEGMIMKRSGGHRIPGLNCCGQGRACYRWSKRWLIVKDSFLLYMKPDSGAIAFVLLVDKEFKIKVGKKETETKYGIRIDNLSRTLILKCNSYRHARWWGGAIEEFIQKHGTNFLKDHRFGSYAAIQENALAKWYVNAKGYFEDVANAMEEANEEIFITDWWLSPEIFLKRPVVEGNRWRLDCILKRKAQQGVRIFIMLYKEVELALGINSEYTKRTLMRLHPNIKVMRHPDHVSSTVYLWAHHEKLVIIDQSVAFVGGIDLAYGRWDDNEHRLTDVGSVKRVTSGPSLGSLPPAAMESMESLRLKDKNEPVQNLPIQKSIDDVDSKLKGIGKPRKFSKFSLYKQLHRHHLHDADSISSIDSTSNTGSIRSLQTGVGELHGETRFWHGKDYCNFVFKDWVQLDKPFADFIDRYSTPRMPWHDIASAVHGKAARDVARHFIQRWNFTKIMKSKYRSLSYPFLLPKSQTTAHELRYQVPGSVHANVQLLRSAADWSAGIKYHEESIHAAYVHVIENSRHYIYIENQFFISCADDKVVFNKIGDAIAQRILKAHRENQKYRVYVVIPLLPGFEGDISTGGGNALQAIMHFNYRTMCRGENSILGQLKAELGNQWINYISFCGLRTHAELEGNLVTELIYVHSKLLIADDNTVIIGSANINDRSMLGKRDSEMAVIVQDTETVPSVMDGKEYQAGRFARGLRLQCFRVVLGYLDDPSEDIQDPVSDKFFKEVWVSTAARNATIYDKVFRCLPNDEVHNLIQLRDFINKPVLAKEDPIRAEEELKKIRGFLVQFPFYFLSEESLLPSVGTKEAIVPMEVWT

Row | SMILES | IC50 (full-length human PLD1) [nM] | IC50 (full-length human PLD2) [nM]
1 | Cc1cccnc1C1=NNC(=O)O[C@]12CC[C@@H](C[C@H](C)NC(=O)c1cc(Cl)no1)CC2 [Example 148] | 20 | 18
2 | C[C@@H](CN1CCC2(CC1)OC(=O)NN=C2c1ccc(C#N)cc1Br)NC(=O)C(=O)NC1CC1 [Example 2-064] | 27 | 11
3 | Cc1cc(C(=O)N[C@@H](C)C[C@H]2CC[C@]3(CC2)OC(=O)NN=C3c2cc(C#N)ccc2Br)[nH]n1 [Example 272] | 15 | < 10
4 | COc1cc(C)c(C2=NNC(=O)O[C@]23CC[C@@H](C[C@H](C)NC(=O)N2CCc4nocc4C2)CC3)cn1 [Example 260] | 31 | < 10
5 | CNC(=O)C(=O)N[C@@H](C)[C@H](C)[C@H]1CC[C@]2(CC1)OC(=O)NN=C2c1cc(C#N)ccc1Br [Example 338] | 24 | < 10
6 | CNC(=O)C(=O)N[C@@H](C)C[C@H]1CC[C@]2(CC1)OC(=O)NN=C2c1cc(C(=O)N(C)C)ccc1Br [Example 2-036] | 17 | < 10
7 | CNC(=O)C(=O)N[C@@H](C)CN1CCC2(CC1)OC(=O)NN=C2c1cc(C(=O)NC)ccc1Br [Example 2-037] | 43 | 13
8 | C[C@@H](CN1CCC2(CC1)OC(=O)NN=C2c1cc(C#N)ccc1Cl)NC(=O)[C@H](O)C(F)(F)F [Example 2-009] | 2150 | 1040
9 | Cc1cc(C(=O)N[C@@H](C)C[C@]2(O)CC[C@]3(CC2)OC(=O)NN=C3c2ccc(F)cc2Br)[nH]n1 [Example 320, N—((S)-1-(cis-5-(2-bromo-4-fluorophenyl)-9-hydroxy-2-oxo-1-oxa-3,4-diazaspiro[5.5]undec-4-en-9-yl)propan-2-yl)-3-methyl-1H-pyrazole-5-carboxamide] | 3880 | 1580
10 | CNC(=O)C(=O)N[C@@H](C)C[C@H]1CC[C@]2(CC1)OC(=O)NN=C2c1cccc(C)c1C [Example 129] | 18 | < 10
11 | C[C@@H](C[C@H]1CC[C@]2(CC1)OC(=O)NN=C2c1nccn1CC1CC1)NC(=O)c1cc(Cl)no1 [Example 83] | 259 | 221
12 | CNC(=O)C(=O)N[C@@H](C)C[C@H]1CC[C@]2(CC1)OC(=O)NN=C2c1cc(Cl)ccc1Cl [Example 314] | < 10 | < 10
13 | Cc1cc(F)ccc1C1=NNC(=O)O[C@]12CC[C@@H](C[C@H](C)NC(=O)N1CC3CCCCC3C1)CC2 (mixture of isomers) [Example 150] | 880 | 640
14 | CNC(=O)C(=O)N[C@@H](C)C[C@H]1CC[C@]2(CC1)OC(=O)NN=C2c1cnc(N2CC(F)(F)C2)cc1C [Example 228] | 28 | < 10
15 | CNC(=O)C(=O)N[C@@H](C)C[C@]1(C#N)CC[C@@]2(CC1)OC(=O)NN=C2c1cc(C(F)(F)F)ccc1Br [Example 2-066] | 15 | < 10
16 | C[C@@H](CN1CCC2(CC1)OC(=O)NN=C2c1ccc(C#N)cc1Br)NC(=O)c1cnn(C)c1 [Example 336] | 33 | < 10
17 | CNC(=O)C(=O)N[C@@H](C)C[C@H]1CC[C@]2(CC1)OC(=O)NN=C2c1cnc(N2CC3CCC(C2)O3)cc1C [Example 269] | 18 | < 10
18 | Cc1cc(C(=O)N[C@@H](C)C[C@H]2CC[C@]3(CC2)OC(=O)NN=C3c2ccc(S(C)(=O)=O)cc2)[nH]n1 [Example 9] | 83 | 56
19 | CNC(=O)C(=O)N[C@@H](C)C[C@H]1CC[C@]2(CC1)OC(=O)NN=C2c1cnc(N2C[C@H]3C[C@@H]2CO3)cc1Cl [Example 243] | 24 | < 10
20 | CNC(=O)C(=O)N[C@@H](C)C[C@H]1CC[C@]2(CC1)OC(=O)NN=C2c1ccccc1SC [Example 74] | < 10 | < 10
21 | CNC(=O)C(=O)N[C@@H](C)C[C@]1(O)CC[C@@]2(CC1)OC(=O)NN=C2c1ccc(F)cc1Br [Example 321] | 42 | < 10
22 | [2H]C([2H])([2H])NC(=O)C(=O)N[C@@H](C)CN1CCC2(CC1)OC(=O)NN=C2c1cc(C#N)c(F)cc1Br [Example 2-004] | 68 | < 10
23 | Cc1cc(C(=O)N[C@@H](C)CN2CCC3(CC2)OC(=O)NN=C3c2ccc(C#N)cc2Cl)[nH]n1 [Example 169] | 34 | 20
24 | CNC(=O)C(=O)N[C@@H](C)C[C@H]1CC[C@]2(CC1)OC(=O)NN=C2c1ncccc1Br [Example 2-013] | 12 | < 10
25 | CNC(=O)C(=O)N[C@@H](C)C[C@]1(F)CC[C@@]2(CC1)OC(=O)NN=C2c1cc(C#N)ccc1Br [Example 310] | 14 | < 10
26 | C[C@@H](CN1CCC2(CC1)OC(=O)NN=C2c1ccc(F)cc1Br)NC(=O)C(=O)NC1CC1 [Example 180] | 28 | 12
